Key:
RXRα [1] = target: T1, RXRα (Homo sapiens, UniProt P19793); test: holoreceptor transactivation assay, RXRα; assay type: cell-based; conditions: for EC50: holoreceptor transactivation, read-out: RXR Trans. EC50 α; for Emax: percentage compared to the standard compound, read-out: RXR Trans. efficacy (number in parentheses) α
T1 construct: expressed in transfected cells
T1 sequence (P19793 1-462): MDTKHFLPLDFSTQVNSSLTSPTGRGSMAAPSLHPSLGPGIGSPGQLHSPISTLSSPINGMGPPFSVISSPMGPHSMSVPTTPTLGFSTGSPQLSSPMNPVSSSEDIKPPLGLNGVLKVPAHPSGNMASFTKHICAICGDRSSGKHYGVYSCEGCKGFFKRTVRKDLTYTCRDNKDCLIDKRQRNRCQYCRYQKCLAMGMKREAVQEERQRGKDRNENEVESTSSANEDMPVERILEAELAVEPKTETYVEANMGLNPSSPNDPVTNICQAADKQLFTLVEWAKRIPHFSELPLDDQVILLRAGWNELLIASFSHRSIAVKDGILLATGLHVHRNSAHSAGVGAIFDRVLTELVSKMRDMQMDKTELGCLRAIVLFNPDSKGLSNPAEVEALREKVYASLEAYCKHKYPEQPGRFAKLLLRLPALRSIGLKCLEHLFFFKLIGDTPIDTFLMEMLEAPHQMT
Excerpt: (§1) Specifically, one such assay is a chimeric receptor transactivation assay which tests for agonist-like activity in the R RAPE and RAR7 receptor subtypes, and which is based on work published by Feigner, P. L. and Holm, M (1989) Focus, 112 is described in detail in U.S. Pat. No. 5,455,265. The specification of U.S. Pat. No. 5,455,265 is hereby expressly incorporated by reference. A holoreceptor transactivation assay and a ligand binding assay which measure the antagonist/agonist like activity of the compounds of the invention, or their ability to bind to the several retinoid receptor subtypes, respectively, are described in published PCT Application No. WO WO93/11755 (particularly on pages 30-33 and 37-41) published on Jun. 24, 1993, the specification of which is also incorporated herein by reference. A detailed experimental procedure for holoreceptor transactivations has been described by Heyman et al. Cell 68, 397-406, (1992); Allegretto et al. J. Biol. Chem. 268, 26625-26633, and Mangelsdorf et al. The Retinoids: Biology, Chemistry and Medicine, pp 319-349, Raven Press Ltd., New York, which are expressly incorporated herein by reference. The results obtained in this assay are expressed in EC50 numbers, as they are also in the chimeric receptor transactivation assay. The results of the ligand binding assay are expressed in Ki numbers. (See Cheng et al. Biochemical Pharmacology Vol. 22 pp 3099-3108, expressly incorporated herein by reference.)
Efficacy in a transactivation assay is expressed as a percentage of the maximum potency attained by the compound compared to a standard which, in this case, is the compound named (2E,4E,1′S,2′S)-3-methyl-5-[2′-methyl-2′-(5,5,8,8-tetramethyl-5,6,7,8-tetrahydro-naphthalen-2-yl)-cyclopropyl]-penta-2,4-dienoic acid. This standard compound is described in U.S. Pat. No. 6,114,533.
The specification of this application for patent is organized in several sections in accordance with structural Formulas A through F each of which discloses a group of preferred compounds within the scope of the invention. Tables that disclose the activity of certain exemplary compounds of the invention in the above-described RXR receptor transactivation and binding assays are found in the corresponding sections. […] The transactivation data pertaining to the activation of RXR receptors were obtained in the holoreceptor assay.
(§2) Generally speaking, in the tables disclosing the results of transactivation and binding assays the numbers in parentheses indicate efficacy as a percentage compared to the standard compound, (2E,4E,1′S,2′S)-3-methyl-5-[2′-methyl-2′-(5,5,8,8-tetramethyl-5,6,7,8-tetrahydro-naphthalen-2-yl)cyclopropyl]-penta-2,4-dienoic acid and the other numbers indicate the measured EC50 and K; in nanomolar concentration.

RARα = target: T2, RARα (Homo sapiens, UniProt P10276); test: ligand binding assay, RARα; conditions: for Kd: Table 9 (Formula F), read-out: RAR α Kd; for Ki: read-out: RAR Bind. Ki α
T2 sequence (P10276 1-462): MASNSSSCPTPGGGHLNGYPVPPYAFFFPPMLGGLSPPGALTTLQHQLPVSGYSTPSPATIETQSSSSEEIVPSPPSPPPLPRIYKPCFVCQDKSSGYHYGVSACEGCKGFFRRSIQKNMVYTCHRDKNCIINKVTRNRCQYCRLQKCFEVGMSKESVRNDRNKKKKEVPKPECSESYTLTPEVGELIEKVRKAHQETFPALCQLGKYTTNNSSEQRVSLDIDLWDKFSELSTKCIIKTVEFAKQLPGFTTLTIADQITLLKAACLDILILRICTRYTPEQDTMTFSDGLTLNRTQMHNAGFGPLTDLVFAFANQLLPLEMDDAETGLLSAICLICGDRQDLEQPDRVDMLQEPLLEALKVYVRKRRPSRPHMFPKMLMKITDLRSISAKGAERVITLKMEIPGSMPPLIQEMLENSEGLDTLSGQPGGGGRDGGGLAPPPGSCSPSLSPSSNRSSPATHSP
Excerpt: as §1, §2

RXRα [2] = target: T1, RXRα; test: ligand binding assay, RXRα; conditions: for Kd: Table 9 (Formula F), read-out: RXR α Kd; for Ki: read-out: RXR Bind Ki α
Excerpt: as §1, §2

RXRβ = target: T3, RXRβ (UniProt P28704); test: ligand binding assay, RXRβ; conditions: for Kd: Table 9 (Formula F), read-out: RXR β Kd; for Ki: read-out: RXR Bind Ki β
T3 sequence (P28704 1-520): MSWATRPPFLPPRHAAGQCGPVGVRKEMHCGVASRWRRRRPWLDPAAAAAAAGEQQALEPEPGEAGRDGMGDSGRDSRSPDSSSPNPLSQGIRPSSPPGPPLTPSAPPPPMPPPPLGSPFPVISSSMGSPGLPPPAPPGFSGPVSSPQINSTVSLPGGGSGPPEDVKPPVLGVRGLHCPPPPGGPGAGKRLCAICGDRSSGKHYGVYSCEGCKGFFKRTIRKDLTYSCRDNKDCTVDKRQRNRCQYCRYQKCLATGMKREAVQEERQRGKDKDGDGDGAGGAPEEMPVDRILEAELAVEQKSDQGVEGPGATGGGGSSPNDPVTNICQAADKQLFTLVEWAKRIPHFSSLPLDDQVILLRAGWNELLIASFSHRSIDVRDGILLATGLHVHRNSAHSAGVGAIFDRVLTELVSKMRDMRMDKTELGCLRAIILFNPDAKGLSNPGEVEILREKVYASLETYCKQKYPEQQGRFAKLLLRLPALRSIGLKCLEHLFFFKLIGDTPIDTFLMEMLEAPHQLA
Excerpt: as §1, §2

CCOc1c(\C(CC)=C(F)/C=C/C(C)=C/C(=O)O)cc2c(c1Cl)C(C)(C)CC=C2C(C)C [Compound A-178, (2E,4E,6E)-7-(4-Chloro-3-ethoxy-8-isopropyl-5,5-dimethyl-5,6-dihydronaphthalen-2-yl)-6-fluoro-3-methyl-nona-2,4,6-trienoic acid]
EC50 (RXRα [1]): 0.1 nM
Emax (RXRα [1]): 43%
Kd (RARα): 9.9 nM
Kd (RXRα [2]): 1 nM
Kd (RXRβ): 11 nM

CC/C(=C(F)/C=C/C(C)=C/C(=O)O)c1cc2c(cc1OC)OC(C)(C)C=C2C [Compound 129, 6-Fluoro-7-(7-methoxy-2,2,4-trimethyl-2H-chromen-6-yl)-3-methyl-nona-2E,4E,6E-trienoic acid]
EC50 (RXRα [1]): 44 nM
Emax (RXRα [1]): 99%
Ki (RARα): 177 nM
Ki (RXRα [2]): 69 nM
Ki (RXRβ): 625 nM

CCOc1cc2c(cc1\C(=C/C=C/C(C)=C/C(=O)O)CC)C(C)=CC(C)(C)O2 [Compound 46, 7-(7-Ethoxy-2,2,4-trimethyl-2H-chromen-6-yl)-3-methyl-nona-2E,4E,6Z-trienoic acid]
EC50 (RXRα [1]): > 1000 nM
Ki (RARα): 623 nM
Ki (RXRα [2]): 199 nM
Ki (RXRβ): 1700 nM

CCOc1cc2c(cc1\C(=C/C=C/C(C)=C/C(=O)O)CC)C(C(C)(C)C)=CCC2(C)C [Compound A-18, 7-(8-tert-butyl-3-ethyoxy-5,5-dimethyl-5,6-dihydronaphthalen-2-yl)-3-methyl-nona-2E,4E,6Z-trienoic acid]
EC50 (RXRα [1]): 2.6 nM
Emax (RXRα [1]): 18%
Ki (RARα): 442 nM
Ki (RXRα [2]): 5 nM
Ki (RXRβ): 31 nM

CCCOc1cc2c(cc1\C(C)=C(F)/C=C/C(C)=C/C(=O)O)C(C(C)C)=CCC2(C)C [Compound A-80]
Ki (RARα): 841 nM
Ki (RXRα [2]): 10 nM
Ki (RXRβ): 56 nM

CCOc1c(\C(C)=C(F)/C=C/C(C)=C/C(=O)O)cc2c(c1Br)C(C)(C)CC=C2C(C)C [Compound A-169, (2E,4E,6E)-7-(4-Bromo-3-ethoxy-8-isopropyl-5,5-dimethyl-5,6-dihydro-naphthalen-2-yl)-6-fluoro-3-methyl-octa-2.4,6-trienoic acid]
EC50 (RXRα [1]): 0.4 nM
Emax (RXRα [1]): 66%
Kd (RARα): 70 nM
Kd (RXRα [2]): 3 nM
Kd (RXRβ): 16 nM

CCOc1c(\C(CC)=C(F)/C=C/C(C)=C/C(=O)O)cc2c(c1Cl)OC(C)(C)C=C2C(C)C [Compound 173]
EC50 (RXRα [1]): 4.8 nM
Emax (RXRα [1]): 18%
Ki (RARα): 102 nM
Ki (RXRα [2]): 2 nM
Ki (RXRβ): 36 nM

CC/C(=C(F)/C=C/C(C)=C/C(=O)O)c1cc2c(c(Cl)c1OC)OC(C)(C)C=C2C(C)C [Compound 171, 7-(8-Chloro-4-isopropyl-7-methoxy-2,2-dimethyl-2H-chromen-6-yl)-6-fluoro-3-methyl-nona-2E,4E,6E-trienoic acid]
EC50 (RXRα [1]): 0.02 nM
Emax (RXRα [1]): 87%
Ki (RARα): 47 nM
Ki (RXRα [2]): 1.3 nM
Ki (RXRβ): 12 nM

CCC1=CC(C)(C)Oc2cc(OC)c(\C(C)=C(F)/C=C/C(C)=C/C(=O)O)cc21 [Compound 120, 7-(4Ethyl-7-methoxy-2,2-dimethyl-2H-chromen-6-yl)-6-fluoro-3-methyl-octa-2E,4E,6E-trienoic acid]
EC50 (RXRα [1]): > 10000 nM
Ki (RARα): 4100 nM
Ki (RXRα [2]): 277 nM
Ki (RXRβ): 2600 nM

COc1cc2c(cc1\C(C)=C(F)/C=C/C(C)=C/C(=O)O)C(C(C)C)=CC(C)(C)O2 [Compound 121, (2E,4E,6E)-6-Fluoro-7-(4-isopropyl-7-methoxy-2,2-dimethyl-2H-chromen-6-yl)-3-methyl-octa-2,4,6-trienoic acid]
EC50 (RXRα [1]): 5 nM
Emax (RXRα [1]): 59%
Ki (RARα): 692 nM
Ki (RXRα [2]): 7 nM
Ki (RXRβ): 33 nM

CC(/C=C/C(F)=C(/C)c1cc2c(cc1OCC1CC1)C(C)(C)CC=C2C(C)C)=C\C(=O)O [Compound A-81, (2E,4E,6E)-6-Fluoro-3-(4-dimethyl-6-(cyclopropyl)methoxy-1-isopropyl-3,4-dihydronaphthalen-7-yl)-3-methyl-2,4.6-octa-trienoic acid]
Ki (RARα): 592 nM
Ki (RXRα [2]): 12 nM
Ki (RXRβ): 33 nM

CCCOc1cc2c(cc1\C(C)=C(F)/C=C/C(C)=C/C(=O)O)C(c1ccccc1)=CC(C)(C)O2 [Compound 128, (2E,4E,6E)-7-(2,2-Dimethyl-4-phenyl-7-propoxy-2H-chromen-6-yl)-6-fluoro-3-methyl-octa-2,4,6-trienoic acid]
Ki (RARα): 302 nM
Ki (RXRα [2]): 53 nM
Ki (RXRβ): 289 nM

CCCOc1cc2c(cc1\C(C)=C(F)/C=C/C(C)=C/C(=O)O)C(C(C)(C)C)=CCC2(C)C [Compound A-84, (2E,4E,6E)-6-Fluoro-3-(4,$dimethyl-6-n-propoxy-1-tert-butyl-3,4-dihydronaphthalen-7-yl)-3-methyl-2,4,6-octatrienoic acid]
Ki (RARα): 1100 nM
Ki (RXRα [2]): 13 nM
Ki (RXRβ): 101 nM

CCOc1c(\C(CC)=C(F)/C=C/C(C)=C/C(=O)O)cc2c(c1Br)C(C)(C)CC=C2C(C)CC (centres unmarked) [Compound A-176, (2E,4E,6E)-7-(4-Bromo-8-sec-butyl-3-ethoxy-5,5-methyl-5,6-dihydro-naphthalen-2-yl)-6-fluoro-3-methyl-nona-2,4,6-trienoic acid]
EC50 (RXRα [1]): 0.9 nM
Emax (RXRα [1]): 58%
Kd (RARα): 32 nM
Kd (RXRβ): 23 nM

CCOc1cc2c(cc1\C(C)=C(F)/C=C/C(C)=C/C(=O)O)C(c1ccccc1)=CC(C)(C)O2 [Compound 127, (2E,4E,6E)-7-(7-Ethoxy-2,2-dimethyl-4-phenyl-2H-chromen-6-yl)-6-fluoro-3-methyl-octa-2,4,6-trienoic acid]
Ki (RARα): 3700 nM
Ki (RXRα [2]): 97 nM
Ki (RXRβ): 554 nM

From patent US6887896B1, “7-[(7-Alkoxy)-chrom-3-en-6-yl]-heptatrienoic acid and 7-[(3-alkoxy)-5,6-dihydronaphthalen-2-yl]-heptatrienoic acid derivatives having serum glucose reducing activity” (Allergan, Inc., priority 2003, dated 2005)
